Measured values published in patent EP0292365A2, “4-Amino-5,8-quinazolindione derivatives, process for their preparation and pharmaceutical compositions containing them” (CENTRE NATIONAL DE LA RECHERCHE SCIENTIFIQUE, priority 1987, dated 1988).

Columns and labels:
[1] = test system: lignée HBL; assay: Effect on cell cycle phases (cell kinetics parameters), HBL line; assay type: cell-based, humaine; conditions: for G2±M / GO-G1 / S / G2+M / G1-GO: HBL
Procedure: Les cellules tumorales en croissance exponentielle sont ensemencées (10.000 cellules/ml) dans des boîtes à Petri contenant au fond de la boîte un couvre-objet (18 x 18 mm) et 3 ml de MEM (MEM = milieu essentiel minimum) + 5 % FCS (FCS = serum de veau fetal) (v/v). […] Trois couvre-objets sont fixés pour chaque condition expérimentale : éthanol 95° (75 v), formol neutre à 40 % (20 v), acide acétique (5 v), pendant 10 minutes. Les cellules témoins cultivées dans le milieu expérimental sans le produit à tester sont fixées au même moment. A la fin de la fixation, les couvre-objets sont retournés et montés sur des lames histologiques à l'aide de produit commercialisé sous la marque DPX par la Société British Drug House et conservés à l'abri de la lumière et à 4° en attendant d'être colorés.
(§1) Les lames avec les couvre-objets sont colorées par une réaction de Feulgen modifiée. Toutes les lames d'une condition expérimentale sont conditionnées par le réactif de Feulgen en même temps, pendant une heure, après hydrolyse dans un milieu HCI 6N pendant une heure à 20° C. Les préparations cellulaires sont ensuite conservées à l'abri de la lumière et à 4°C en attendant l'analyse.
(§2) Grâce à un système d'analyse microscopique à balayage automatique, on détermine l'effet de la drogue sur la croissance cellulaire, au cours du temps, sur deux lignées cellulaires tumorales d'origine humaine : la lignée MCF-7 d'origine mammaire et la lignée HBL (mélanome malin).
On a représenté sur le tableau D BIS les résultats relatifs aux effets du composé 63 au cours du temps sur les différentes phases du cycle cellulaire (lignée HBL) où il est possible d'observer le nombre de cellules survivant à chaque phase du cycle cellulaire.
Dans les tableaux, GO-G1, S et G2 + M correspondent à des différentes phases de multiplication des cellules, telles qu'elles sont définies dans "Cell proliferation kinetics of MCF-7 human mammary carcinome cells in culture and effects of tamoxifen on exponentially growing and plateau - phase cells" R.L. Sutherland, R.E. Hall and I.W. Taylor, Cancer Research 43, pp. 3998 à 4006, 1983.

[2] = test system: cellules de lignée MCF-7; assay: Effect on in vitro cell growth, MCF-7 line (Feulgen staining, automated scanning microscopy); assay type: cell-based, humaine; conditions: for nombre de cellules observées par champ de microscope: MCF-7
Procedure: Les cellules tumorales en croissance exponentielle sont ensemencées (10.000 cellules/ml) dans des boîtes à Petri contenant au fond de la boîte un couvre-objet (18 x 18 mm) et 3 ml de MEM (MEM = milieu essentiel minimum) + 5 % FCS (FCS = serum de veau fetal) (v/v). Après 24 heures d'incubation, quand les cellules sont bien attachées au fond de la boîte, le milieu est remplacé par MEM expérimental contenant 5 % FCS (v/v) et enrichi, par exemple de : • a) 3 ml du milieu (MEM + 5 % FCS) = témoins • b) 3 ml du milieu contenant une dose élevée du composé à tester : 10 µg/ml : (M) • c) milieu contenant une faible dose du composé à tester : 0.01 µg/ml (f) respectivement aux jours 1, 2, 3 et 4 après addition du milieu expérimental dans les boîtes de Petri. Trois couvre-objets sont fixés pour chaque condition expérimentale : éthanol 95° (75 v), formol neutre à 40 % (20 v), acide acétique (5 v), pendant 10 minutes. Les cellules témoins cultivées dans le milieu expérimental sans le produit à tester sont fixées au même moment. A la fin de la fixation, les couvre-objets sont retournés et montés sur des lames histologiques à l'aide de produit commercialisé sous la marque DPX par la Société British Drug House et conservés à l'abri de la lumière et à 4° en attendant d'être colorés.
as §1, §2
On a représenté dans le tableau C les résultats relatifs à l'action du composé 63 sur la croissance des cellules de lignée MCF-7 et dans le tableau C BIS, les résultats relatifs à l'action du composé 63 sur la croissance des cellules de lignée HBL. Ces résultats montrent le nombre de cellules survivant au traitement après 1, 2, 3 et 4 jours d'incubation et à trois doses différentes (10 µg/ml, 1 µg/ml et 0,1 µg/ml).
Chaque chiffre correspond au nombre de cellules observées par champ de microscope.

## CN(C)CCCNc1ncnc2c1C(=O)C(N1CC1)=C(N1CC1)C2=O [composé 63]
[1]; F (10µg/ml), 1 jour
  G2±M: 14.0 ± 0.1 ns
  GO-G1: 62.7 ± 2.0 ns
  S: 23.3 ± 2.0 ns
[1]; F (10µg/ml), 2 jours
  G2+M: 13.3 ± 2.2 ns
  GO-G1: 58.7 ± 0.9
  S: 28.0 ± 2.1
[1]; F (10µg/ml), 3 jours
  G2+M: 12.3 ± 0.7 ns
  GO-G1: 59.7 ± 0.9
  S: 28.0 ± 1.0
[1]; F (10µg/ml), 4 jours
  G1-GO: 59.0 ± 1.5 ns
  G2+M: 12.3 ± 1.9 ns
  S: 28.7 ± 0.7 ns
[1]; M (1µg/ml), 1 jour
  G2±M: 12.7 ± 1.5 ns
  GO-G1: 62.3 ± 1.9 ns
  S: 25.0 ± 3.6 ns
[1]; M (1µg/ml), 2 jours
  G2+M: 13.7 ± 1.2 ns
  GO-G1: 58.3 ± 1.3
  S: 28.0 ± 1.0
[1]; M (1µg/ml), 3 jours
  G2+M: 15.3 ± 1.3 ns
  GO-G1: 56.7 ± 1.8
  S: 28.0 ± 3.1
[1]; M (1µg/ml), 4 jours
  G1-GO: 58.0 ± 0.6 ns
  G2+M: 16.0 ± 2.1
  S: 26.0 ± 1.7 ns
[1]; f (0.1µg/ml), 1 jour
  G2±M: 12.7 ± 1.2 ns
  GO-G1: 56.0 ± 1.5
  S: 31.3 ± 2.6
[1]; f (0.1µg/ml), 2 jours
  G2+M: 10.3 ± 2.2 ns
  GO-G1: 53.0 ± 1.5
  S: 36.7 ± 3.7
[1]; f (0.1µg/ml), 3 jours
  G2+M: 11.0 ± 0.6 ns
  GO-G1: 53.7 ± 1.3
  S: 35.3 ± 0.9
[1]; f (0.1µg/ml), 4 jours
  G1-GO: 53.3 ± 1.2
  G2+M: 14.0 ± 2.3 ns
  S: 32.7 ± 3.5 ns
[1]; summary of tableau D BIS
  effet sur le cycle cellulaire (HBL): bloque les cellules en phase S
[2]; 0.1µg/ml (f), 1j
  nombre de cellules observées par champ de microscope: 174± 38 ns
[2]; 0.1µg/ml (f), 2j
  nombre de cellules observées par champ de microscope: 92± 21
[2]; 0.1µg/ml (f), 3j
  nombre de cellules observées par champ de microscope: 38± 6
[2]; 0.1µg/ml (f), 4j
  nombre de cellules observées par champ de microscope: 30± 4
[2]; 1µg/ml (M), 1j
  nombre de cellules observées par champ de microscope: 133± 7 ns
[2]; 1µg/ml (M), 2j
  nombre de cellules observées par champ de microscope: 85± 8
[2]; 1µg/ml (M), 3j
  nombre de cellules observées par champ de microscope: 58± 7
[2]; 1µg/ml (M), 4j
  nombre de cellules observées par champ de microscope: 63± 8
[2]; 10µg/ml (F), 1j
  nombre de cellules observées par champ de microscope: 128± 11 ns
[2]; 10µg/ml (F), 2j
  nombre de cellules observées par champ de microscope: 93± 4
[2]; 10µg/ml (F), 3j
  nombre de cellules observées par champ de microscope: 87± 20
[2]; 10µg/ml (F), 4j
  nombre de cellules observées par champ de microscope: 88± 18
[2]; dose-indépendante, summary of tableau C
  croissance des cellules MCF-7: ralentit fortement la croissance
